Results as given in patent US9403843B2, “Cysteine protease inhibitors and uses thereof” (The Trustees of Columbia University in the City of New York, priority 2012, dated 2016).
pIC50, pKi: −log10 of the molar value. Read-outs that look alike come from different tables or passages of the source.

Key:
full-length human Cal1 [1] = molecular target: T1, full-length human Cal1 (Homo sapiens (Human), UniProt P07384); test: Calpain inhibition FRET assay; format: biochemical; details: for pIC50: Table 2, approximate IC50, read-out: Cal I IC50
Method: Calpain activity was measured using full-length human Cal1 in the presence of a FRET substrate. IC50 values were approximated by co-incubation of varying concentrations of the appropriate inhibitor (10, 100, 500, 1000 nM) in the presence of the FRET substrate (DABCYL)TPLK-SPPSPR-(EDANS) (SEQ ID NO: 5) and activation buffer. […] A peptide inhibitor, Z-LLY-FMK (SEQ ID NO: 6), was used as a positive control.
The Calbiochem InnoZyme activity kit was used for measuring the inhibition effect inhibitors on human erythrocyte calpain 1 activity. […] 20 μM of the FRET substrate, 10 nM of native Cal1, and 20 μM TCEP (reducing agent) were added to the reaction mixture containing assay buffer (Tris [10 mM], NaCl [100 mM], pH 7.4). Cal1 was activated by the addition of 10 μM calcium. Cleavage of the scissile bond amide bond, K-S, releases the fluorophore (EDANS) from the internal quenching molecule (DABCYL), resulting in an increase in fluorescence measured at 320 nm excitation and 480 nm emission wave lengths for 30 min. Each inhibitor was added to the reaction mixture at varying concentrations (10 nM, 100 nM, 1 μM, and 10 μM) to detect inhibition of Cal1 and reduction in fluorescence was measured by 96 well-plate reader. Approximate IC50 values of each compound were generated using linear regression within Graphpad Prism Software.

[2] = system: Aβ-induced LTP impairment; test: LTP rescue test; details: assessed at 650 nM
Method: Residual levels of potentiation were averaged during the last 5 min of LTP.

APP/PS1 mice = test: Behavioral rescue assays (contextual fear memory, 2-day RAWM reference memory); format: in vivo
From the text: APP/PS1-vehicle: n=15; APP/PS1-67: n=6; APP/PS1-30a: n=10; WT-vehicle: n=15; WT-67=5; WT-30a: n=8, APP/PS1-33: n=11; WT-33: n=8, APP/PS1-50: n=10; WT-50: n=8. P<0.05 in all transgenic groups treated with compound compared to their respective vehicle-treated transgenics.
APP/PS1-vehicle: n=17; APP/PS1-67: n=9; APP/PS1-30a: n=10; WT-vehicle: n=18; WT-67=9; WT-30a: n=9, APP/PS1-33: n=10; WT-33: n=9, APP/PS1-50: n=11; WT-50: n=9.
The ability of compounds to rescue the defects in associative and reference memory in 3 month old APP/PS1 animals was assessed. Capability of ameliorating the defects in contextual fear memory was tested via i.p. administration (FIG. 12). In the 2-day RAWM test, daily injections of the 67, 30a, 33 and 50 from the 2nd month of age were beneficial against the loss of contextual fear memory and reference memory.
Impact of chronic treatment on against memory loss in older APP/PS1 mice (7 months of age) with a more severe plaque load was also investigated. Compounds 67, 33 and 50 were beneficial against memory impairment following chronic administration (FIG. 13).
The ability of a prodrug to rescue the defects in associative and reference memory in 3 month old APP/PS1 animals was assessed. […] Thus, the esterification seems to improve PK but it spoils PD parameters. Compound 89 ameliorates both LTP and memory in 3 month old APP/PS1 mice (FIG. 15). Daily treatment with 89 from the age of 2 months until 3 months ameliorated the defect in LTP (A) contextual fear memory (B) and reference memory (C) in APP/PS1 mice. n=10 for all groups. P<0.05 in transgenics treated with compound compared to their respective vehicle-treated transgenics.

full-length human Cal1 [3] = molecular target: T1, full-length human Cal1; test: Calpain inhibition FRET assay; format: biochemical; details: Table 3, 20 min incubation, FRET substrate
Cal1cat vs CathB = test: Competition assay for Cal1 vs CathB using the biotinylated epoxide probe; format: binding, rat; details: individually and in combination
Method: Anti-biotin western blotting of Cal1cat (Lane 6) or CathB (Lane 7) after incubation with 27 show the expected immunoreactivity of the covalently modified proteins. […] Densitometric analysis, using means from triplicate immunoblots, was used to estimate the modification of each protein by 27 in the presence of inhibitors relative to control (Lane 1: ratio=1.0).
Cal1cat was used in place of the full length enzyme to avoid autocatalysis.
Cal1cat and CathB were pre-treated with inhibitors for 10 min, followed by a 20 min incubation with the biotinylated epoxide, 27, as illustrated in FIG. 4. […] A more quantitative estimate of selectivity was achieved by comparison of band intensities.
The appropriate inhibitor (5 μM) was pre-incubated in a mixture containing Cal1cat (2 μM), CathB (2 μM), TCEP (1 mM), and Ca^2+ (30 μM) for 10 min at 37° C. […] (5 μM) was then added and the mixture incubated an additional 20 min. The reaction was quenched with EDTA (10 μM) and samples were ran using 4-16% SDS PAGE gel, subsequently transferred to PVDF membrane and visualized by Pierce ECL (Enhanced chemiluminescent) western blotting substrate, intensity of each blot was calculated using densitometry software. Relative inhibition of each enzyme was calculated with respect to enzyme activity in the absence of inhibitor. Inhibitor preference to Cal1cat with respect to CathB, was calculated by dividing relative Cal1cat inhibition with relative CathB inhibition of that particular inhibitor.

[4] = molecular target: Full length porcine calpain (Sus scrofa (Pig), UniProt P35750); test: Calpain inhibition kinetics studies (Suc-LLVY-AMC substrate); format: biochemical
From the text: (§1) Papain is representative of a family of typically lysosomal or secreted cysteine proteases, including the human cathepsins (B, C, F, H, K, L1-2, O, S, W, Z). […] Several methods have been reported in the literature for detailed kinetic analysis of the irreversible inhibition of cysteine proteases, including Cal1. […] (SEQ ID NO: 8). Using this substrate, kinetic parameters were derived using the method of Davies and co-workers, whereby “progress curves” were initially obtained measuring product formation as a function of time and fitted to y=P∞*(1−e^(−k*x)) (FIG. 7) (Cuerrier, D. et al., J Biol Chem 2007, 282, 9600-11; herein incorporated by reference in its entirety). […] Kinetic parameters (ki, KI, ki/KI) were obtained from double reciprocal plots (FIG. 7).
(§2) Full length porcine calpain (156 nM), or papain (236 pM) was added to a solution of 100 mM NaCl, 50 mM HEPES, pH 7.6, 1 mM TCEP, 30 μM Suc-LLVY-AMC (SEQ ID NO: 8) substrate, and inhibitor (0.5 to 50 μM). Calpain reactions also contained CaCl2 (1 mM and 100 mM for porcine and rat respectively). Both substrate and inhibitors were dissolved in acetonitrile/DMSO (1:1) with the exception of E-64, dissolved in water. Organic solvent remained <2% in all reactions, and most often <1%. Reactions were carried out in microtiter 96-well plates, with 150 μL per well, 30° C., and product formation was monitored over time by fluorescence (Ex/Em 346/444 nm, with 420 nm cutoff filter). Kinetic values of kobs were determined via non-linear regression using one-phase association analysis and linear plots of 1/kobs vs. 1/[I] provided kinetic constants ki and KI.

papain = papain (Carica papaya (Papaya), UniProt P00784); test: biochemical; format: biochemical
From the text: as §1, §2

[5] = APP/PS1 mice, daily treatment from 2 until 7 months
[6] = >1: inhibition not quantifiable at 1 μM
[7] = ki/Ki calculated relative to E-64
[8] = mean ± S.D. of triplicate experiments

T1 sequence (P07384 whole entry): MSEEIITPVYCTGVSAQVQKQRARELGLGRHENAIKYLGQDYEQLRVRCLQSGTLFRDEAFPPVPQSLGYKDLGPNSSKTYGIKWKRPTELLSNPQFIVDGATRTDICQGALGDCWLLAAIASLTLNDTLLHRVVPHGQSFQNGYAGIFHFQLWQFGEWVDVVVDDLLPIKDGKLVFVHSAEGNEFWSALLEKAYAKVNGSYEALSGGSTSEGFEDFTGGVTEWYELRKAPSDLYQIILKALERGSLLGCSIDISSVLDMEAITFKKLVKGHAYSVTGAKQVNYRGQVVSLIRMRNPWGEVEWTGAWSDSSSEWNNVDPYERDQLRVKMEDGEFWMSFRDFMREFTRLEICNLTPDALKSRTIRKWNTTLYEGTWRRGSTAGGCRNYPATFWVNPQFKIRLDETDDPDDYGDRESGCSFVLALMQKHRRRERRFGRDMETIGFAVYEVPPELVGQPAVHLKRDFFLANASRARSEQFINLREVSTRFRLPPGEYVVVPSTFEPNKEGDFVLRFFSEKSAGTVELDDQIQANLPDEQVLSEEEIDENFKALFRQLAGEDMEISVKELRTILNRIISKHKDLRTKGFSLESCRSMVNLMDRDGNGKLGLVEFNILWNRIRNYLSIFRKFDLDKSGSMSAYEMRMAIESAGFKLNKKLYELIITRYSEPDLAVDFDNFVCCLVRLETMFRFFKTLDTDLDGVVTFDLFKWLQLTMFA
T1 sequence (P04632 whole entry partner): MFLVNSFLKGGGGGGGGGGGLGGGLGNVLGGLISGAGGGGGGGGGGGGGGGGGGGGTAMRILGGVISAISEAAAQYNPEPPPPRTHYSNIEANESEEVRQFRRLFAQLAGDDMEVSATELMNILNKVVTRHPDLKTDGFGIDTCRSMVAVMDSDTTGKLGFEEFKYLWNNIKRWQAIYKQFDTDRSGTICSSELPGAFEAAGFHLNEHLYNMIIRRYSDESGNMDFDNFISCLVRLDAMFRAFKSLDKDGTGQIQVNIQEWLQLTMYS
Full length porcine calpain, sequence (P35750 whole entry): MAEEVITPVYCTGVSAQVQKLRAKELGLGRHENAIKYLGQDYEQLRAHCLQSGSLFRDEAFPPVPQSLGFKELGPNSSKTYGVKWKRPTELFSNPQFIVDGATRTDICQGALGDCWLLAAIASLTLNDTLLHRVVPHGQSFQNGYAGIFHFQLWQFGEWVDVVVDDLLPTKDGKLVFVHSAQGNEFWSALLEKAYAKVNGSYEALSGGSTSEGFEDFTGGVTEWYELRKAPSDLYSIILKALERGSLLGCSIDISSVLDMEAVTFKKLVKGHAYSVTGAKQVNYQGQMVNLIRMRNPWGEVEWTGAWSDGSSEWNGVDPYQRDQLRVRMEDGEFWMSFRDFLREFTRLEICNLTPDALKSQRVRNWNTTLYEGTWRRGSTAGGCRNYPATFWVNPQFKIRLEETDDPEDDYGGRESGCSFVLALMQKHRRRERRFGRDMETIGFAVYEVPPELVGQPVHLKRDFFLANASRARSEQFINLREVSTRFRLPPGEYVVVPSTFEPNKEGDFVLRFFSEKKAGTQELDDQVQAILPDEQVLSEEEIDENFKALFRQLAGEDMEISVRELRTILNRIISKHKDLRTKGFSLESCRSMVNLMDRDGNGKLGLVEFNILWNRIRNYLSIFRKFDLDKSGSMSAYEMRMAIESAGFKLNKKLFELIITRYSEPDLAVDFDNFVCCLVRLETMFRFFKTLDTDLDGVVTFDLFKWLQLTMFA
Full length porcine calpain, sequence (P04574 whole entry partner): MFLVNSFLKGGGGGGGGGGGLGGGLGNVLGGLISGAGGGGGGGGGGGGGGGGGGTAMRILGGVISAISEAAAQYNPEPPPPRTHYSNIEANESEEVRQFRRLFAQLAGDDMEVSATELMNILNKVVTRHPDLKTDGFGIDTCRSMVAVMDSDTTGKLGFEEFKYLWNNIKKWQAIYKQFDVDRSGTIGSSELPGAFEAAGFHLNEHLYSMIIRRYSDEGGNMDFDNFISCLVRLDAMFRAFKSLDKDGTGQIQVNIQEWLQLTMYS
papain, sequence (P00784 134-345): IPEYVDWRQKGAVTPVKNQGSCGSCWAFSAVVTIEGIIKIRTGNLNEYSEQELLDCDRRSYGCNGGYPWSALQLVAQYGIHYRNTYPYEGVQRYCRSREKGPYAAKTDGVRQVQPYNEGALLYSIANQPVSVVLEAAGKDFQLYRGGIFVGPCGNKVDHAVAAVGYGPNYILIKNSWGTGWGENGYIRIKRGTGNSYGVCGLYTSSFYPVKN

Row | Structure (SMILES) | pIC50 (full-length human Cal1 [1]) | potency for LTP rescue compared with E64 [2] | pIC50 (full-length human Cal1 [3]) | Cal1 inhibition (in words) (full-length human Cal1 [1]) | also measured
1 | CC(C)C[C@H](NC(=O)[C@H]1O[C@@H]1C(=O)O)C(=O)NCCCCNC(=O)CCCCC1CCSS1 (stereo partly drawn) [Compound 67] | 6.82 | surpassed E64 | – | – | reference memory (APP/PS1 mice; 3 month old APP/PS1 mice, 2-day RAWM, daily from 2 months): beneficial; contextual fear memory (APP/PS1 mice; 3 month old APP/PS1 mice, daily i.p. from 2 months): beneficial; memory impairment (APP/PS1 mice; 7 month old APP/PS1 mice, chronic administration): beneficial; contextual fear memory (APP/PS1 mice; [5]): ameliorated; reference memory (APP/PS1 mice; [5]): not significant
2 | O=C(O)[C@H]1O[C@@H]1C(=O)NC1(C(=O)NCCCCNS(=O)(=O)c2ccc(F)cc2)CCCCC1 [Compound 66] | 6.00 | surpassed E64 | – | – | –
3 | CC(C)C[C@H](NC(=O)[C@H]1O[C@@H]1C(=O)O)C(=O)NCCCCNC(=O)CCCC[C@@H]1SC[C@@H]2NC(=O)N[C@@H]21 [Compound 27, (2S,3S)-3-((S)-4-methyl-1-oxo-1-(4-(5-((3aS,4S,6aR)-2-oxohexahydro-1H-thieno[3,4-d]imidazol-4-yl)pentanamido)butylamino)pentan-2-ylcarbamoyl)oxirane-2-carboxylic acid] | 6.82 | – | 7.00 | shown to be a Cal1 inhibitor | covalent modification of Cal1 and CathB (anti-biotin immunoblotting) (Cal1cat vs CathB): covalently modify both Cal1 and CathB
4 | Cn1cnc(C[C@H](NC(=O)[C@H]2O[C@@H]2C(=O)O)C(=O)Nc2nc(-c3ccc(F)cc3)cs2)c1 [Compound 36, (2S,3S)-3-((S)-1-(4-(4-fluorophenyl)thiazol-2-ylamino)-3-(1-methyl-1H-imidazol-4-yl)-1-oxopropan-2-ylcarbamoyl)oxirane-2-carboxylic acid] | – | did not surpass | 6.65 | – | –
5 | O=C(NCc1cn(-c2ccc(Br)cc2)nn1)[C@H](Cc1cscn1)NC(=O)[C@H]1O[C@@H]1C(=O)O [Compound 55, (2S,3S)-3-((S)-1-((1-(4-bromophenyl)-1H-1,2,3-triazol-4-yl)methylamino)-1-oxo-3-(thiazol-4-yl)propan-2-ylcarbamoyl)oxirane-2-carboxylic acid] | 7.40 | did not surpass | – | potent activity | –
6 | O=C(NCc1cn(-c2c(F)cccc2F)nn1)[C@H](Cc1cscn1)NC(=O)[C@H]1O[C@@H]1C(=O)O [Compound 57, (2S,3S)-3-((S)-1-((1-(2,6-difluorophenyl)-1H-1,2,3-triazol-4-yl)methylamino)-1-oxo-3-(thiazol-4-yl)propan-2-ylcarbamoyl)oxirane-2-carboxylic acid] | < 6.00 | – | – | relatively high IC50 values | pIC50 (full-length human Cal1 [3]; [6]): < 6.00
7 | O=C(NCc1cn(-c2ccc([N+](=O)[O-])cc2)nn1)[C@H](Cc1cscn1)NC(=O)[C@H]1O[C@@H]1C(=O)O [Compound 56, (2S,3S)-3-((S)-1-((1-(4-nitrophenyl)-1H-1,2,3-triazol-4-yl)methylamino)-1-oxo-3-(thiazol-4-yl)propan-2-ylcarbamoyl)oxirane-2-carboxylic acid] | – | – | 6.52 | potent activity | –
8 | C#Cc1ccc(-c2csc(NC(=O)[C@H](Cc3cscn3)NC(=O)[C@H]3O[C@@H]3C(=O)O)n2)cc1 [Compound 34, (2S,3S)-3-((S)-1-(4-(4-ethynylphenyl)thiazol-2-ylamino)-1-oxo-3-(thiazol-4-yl)propan-2-ylcarbamoyl)oxirane-2-carboxylic acid] | – | – | 7.00 | – | Relative Selectivity ([4]; Cal1 over papain, ki/Ki relative to E-64 set at 1.0): 3.3; pKi ([4]; apparent equilibrium constant, full length Cal1, read-out: K1 Calpain1): 5.46; ki Calpain1 ([4]; inhibition rate, full length Cal1): 0.14 s⁻¹; relative selectivity for inhibition of Cal1 over papain (in words) ([4]; ki/Ki as measure, compared with E-64): Cal1 selectivity; rel Calpain1 [4, 7]: 1.3; 10^−4 × ki/Ki Calpain1 [4, 8]: 3.89 ± 0.41; pKi (papain; apparent equilibrium constant, read-out: K1 Papain): 5.01; ki Papain (papain; inhibition rate): 21.6 s⁻¹; rel Papain (papain; [7]): 0.40; 10^−5 × ki/Ki Papain (papain; [8]): 22.3 ± 0.24
9 | O=C(Nc1nc(-c2ccc(F)cc2)cs1)[C@H](Cc1c[nH]cn1)NC(=O)[C@@H]1O[C@H]1C(=O)O [Compound 30b, (2R,3R)-3-((S)-1-(4-(4-fluorophenyl)thiazol-2-ylamino)-3-(1H-imidazol-4-yl)-1-oxopropan-2-ylcarbamoyl)oxirane-2-carboxylic acid] | < 6.00 | – | – | – | pIC50 (full-length human Cal1 [3]; [6]): < 6.00
